How the values were obtained:
Format in all cases: cell-based, Pseudomonas aeruginosa
[1] = test system: P. aeruginosa strain PAR 20 biofilm; experiment: Early biofilm model, Congo red staining; settings: for absorbance (Congo red, biofilm formation): early biofilm, 0.9 mM, 492 nm
Procedure: (§1) P. aeruginosa biofilm was set-up in sterile plastic 96-well plates with adherent surface (Greiner Bio-One, USA).
(§2) Twenty microliter quantities of the bacterial stock suspensions, prepared as described above, were added to each well followed with 180 μl of sterile TSB. Final concentration of the bacteria was 1×10^8 CFU/ml.
(§3) The plates were centrifuged for 10 minutes at 2000 rpm to sediment bacteria on the bottom of each well and then incubated for 72 hours (37° C., aerobic conditions).
(§4) Biofilm quantity was determined using Congo red dye according to a modified procedure described by Allison et al. (Allison G C, Sutherland I W. A staining technique for bacteria and its correlation to extracellular carbohydrate production. J Microbiol Meth 2, 93-99 (1984)).
(§5) Briefly, at different time points (0, 6, 18, 24, 48 and 72 hours), the culture medium was gently removed from wells by using the pipette and immediately 200 μl of 0.1% Congo red solution was added. The plates were left for 30 minutes at room temperature and then 10 minutes before the end of staining, the plate was centrifuged for 10 minutes at 2000 rpm and then washed twice with buffered saline to remove unbound dye. Absorbance was measured at λ=492 nm wavelength using spectrophotometer (Awarness Technology Inc., Palm City, Fla., USA). All measurements were performed in triplicates and mean values±SD are given.
(§6) Early biofilm model: formation of early biofilm under influence of the tested substances was observed by filling wells of a 96-well plate with 20 μl of P. aeruginosa suspension and 180 μl of TSB, as described above. Tested iminosugars (compounds 1, 2, 3 and 4) were added immediately after setting-up the bacteria at a final concentration of 0.9 mM. Then, the plate was gently mixed and incubated for 48 hours at 37° C.
(§7) Biofilm formation and the number of viable bacteria were checked in parallel in the following time intervals: 0, 0.5, 8, 24, 48 hours, in accordance with the procedure described above. Biofilm thickness was estimated by staining it with Cango Red and measuring optical density while number of viable bacteria was performed using the standard viable count method. (Allison G C, Sutherland I W. A staining technique for bacteria and its correlation to extracellular carbohydrate production. J Microbiol Meth 2, 93-99 (1984)).
(§8) P. aeruginosa suspension cultures in TSB broth alone were used as a control.

[2] = test system: P. aeruginosa strain PAR 5 biofilm; experiment: Early biofilm model, Congo red staining; settings: for absorbance (Congo red, biofilm formation): 0.9 mM, 492 nm
Procedure: as §1, §2, §3, §4, §5, §6, §7, §8

[3] = test system: P. aeruginosa strain PAR 50 biofilm; experiment: Early biofilm model, Congo red staining; settings: for absorbance (Congo red, biofilm formation): early biofilm, 0.9 mM, 492 nm
Procedure: as §1, §2, §3, §4, §5, §6, §7, §8

[4] = test system: P. aeruginosa strain PAR 20 biofilm; experiment: Mature biofilm model, Congo red staining; settings: for absorbance (Congo red, biofilm development): mature biofilm, compound added 48 h after induction of biofilm
Procedure: as §4, §5
(§9) Mature biofilm model: the tested substances were added 48 hours after adherence of bacteria to the wells in a 96-well plate. The growth conditions of P. aeruginosa were exactly the same, as described above for the early biofilm model.
(§10) After the addition of iminosugars (compounds 1, 2, 3 and 4), the biofilm formation and the number of viable bacteria were checked in the following time intervals: 48, 48.5, 56, 72, 96 hours.

[5] = test system: P. aeruginosa strain PAR 5 biofilm; experiment: Mature biofilm model, Congo red staining; settings: for absorbance (Congo red, biofilm development): mature biofilm, compound added 48 h after induction of biofilm
Procedure: as §4, §5, §9, §10

[6] = test system: P. aeruginosa strain PAR 50 biofilm; experiment: Mature biofilm model, Congo red staining; settings: for absorbance (Congo red, biofilm development): mature biofilm, compound added 48 h after induction of biofilm
Procedure: as §4, §5, §9, §10

[7] = test system: P. aeruginosa strain PAR 20; experiment: Number of viable bacteria in early and mature biofilm (viable count)
Procedure: as §7, §10
(§11) Numbers of viable bacteria contained in the early and mature biofilm were estimated on separate plates with wells filled with tested P. aeruginosa strains as described above (PAR 5, PAR 20, PAR 50).
(§12) At the same time intervals, biofilm content in each well was removed and mixed by multiple pippeting and transferred to sterile tubes. Then decimal dilutions of the bacterial suspension were made in TSB broth, plated on McConkey Agar (Oxoid), and incubated at 37° C. for 24 hours.
(§13) Numbers of colonies grown on platter were counted and total numbers of the viable bacteria calculated as colony forming units (CFU) per ml.
(§14) The results depict logs of CFU/ml for three P. aeruginosa strains: PAR 5, PAR 20 and PAR 50 measured at different time intervals (0 hours, 8 hours, 24 hours, 48 hours, 56 hours, 72 hours and 96 hours). The detection limit is 100 CFU/ml.

[8] = test system: P. aeruginosa strain PAR 50; experiment: as above
Procedure: as §7, §10, §11, §12, §13, §14

[9] = test system: P. aeruginosa strain PAR 5; experiment: as above
Procedure: as §7, §10, §11, §12, §13, §14

[10] = test system: P. aeruginosa strain PAR 5 biofilm; experiment: Reduction of biofilm growth (percent vs culture control)
Description: FIG. 4A represents the effect of the tested compounds (1, 2, 3 and 4) on exopolysaccharide biosynthesis in the early stages and mature P. aeruginosa biofilm formation, strain PAR 5. The abscissa represents the time (in hours) in order to differentiate early biofilm and mature biofilm, and the ordinate represents the percentage of the biofilm reduction.
as §6, §9
(§15) The effect of the tested compounds (1, 2, 3 and 4) on the reduction of biofilm growth has also been studied on the three P. aeruginosa strains PAR 5, PAR 20, PAR 50.
(§16) (Percent decrease in biofilm thickness was obtained as a mean value from 3 consecutive measurements of the Congo Red stained biofilm using spectrophotometer after addition of the tested iminosugars in comparison to control regarded as 100%).

[11] = test system: P. aeruginosa strain PAR 20 biofilm; experiment: as above
Description: FIG. 4B represents the effect of the tested compounds (1, 2, 3 and 4) on exopolysaccharide biosynthesis in the early stages and mature P. aeruginosa biofilm formation, strain PAR 20. The abscissa represents the time (in hours) in order to differentiate early biofilm and mature biofilm, and the ordinate represents the percentage of the biofilm reduction.
as §6, §9, §15, §16

[12] = test system: P. aeruginosa strain PAR 50 biofilm; experiment: as above
Description: FIG. 4C represents the effect of the tested compounds (1, 2, 3 and 4) on exopolysaccharide biosynthesis in the early stages and mature P. aeruginosa biofilm formation, strain PAR 50. The abscissa represents the time (in hours) in order to differentiate early biofilm and mature biofilm, and the ordinate represents the percentage of the biofilm reduction.
as §6, §9, §15, §16

[13] = in comparison with culture control

COc1ccc(C[C@@H]2CCC[C@@H]3[C@H](O)[C@@H](O)[C@H](CO)N23)cc1 [Compound 3, (1S,2S,3S,5S,9R)-1,2-dihydroxy-3-hydroxymethyl-5-p-methoxybenzylindolizidine]
absorbance (Congo red, biofilm formation) ([1]; 8 hours): about 0.75 a.u. | absorbance (Congo red, biofilm formation) ([1]; 24 hours): about 0.7 a.u. | absorbance (Congo red, biofilm formation) ([1]; 48 hours): about 0.7 a.u. | effect on formation of an early biofilm [1, 13]: inhibit the formation of an early biofilm | biofilm formation at 8 hours, 24 hours and 48 hours ([2]; early biofilm): no biofilm formation | absorbance (Congo red, biofilm formation) ([2]; early biofilm, 8 hours): about 0.25 a.u. | absorbance (Congo red, biofilm formation) ([2]; early biofilm, 24 hours): about 0.25 a.u. | absorbance (Congo red, biofilm formation) ([2]; early biofilm, 48 hours): about 0.25 a.u. | effect on formation of an early biofilm [2, 13]: inhibit the formation of an early biofilm | absorbance (Congo red, biofilm formation) ([3]; 8 hours): about 0.8 a.u. | absorbance (Congo red, biofilm formation) ([3]; 24 hours): about 0.25 a.u. | absorbance (Congo red, biofilm formation) ([3]; 48 hours): about 0.25 a.u. | effect on formation of an early biofilm [3, 13]: inhibit the formation of an early biofilm | influence on mature biofilm formation [4]: weak influence | absorbance (Congo red, biofilm development) ([4]; 48 hours): about 0.6 a.u. | absorbance (Congo red, biofilm development) ([4]; 56 hours): about 1.1 a.u. | absorbance (Congo red, biofilm development) ([4]; 72 hours): about 0.75 a.u. | absorbance (Congo red, biofilm development) ([4]; 96 hours): about 1.5 a.u. | influence on mature biofilm formation [5]: weak influence | absorbance (Congo red, biofilm development) ([5]; 48 hours): about 0.75 a.u. | absorbance (Congo red, biofilm development) ([5]; 56 hours): about 1.25 a.u. | absorbance (Congo red, biofilm development) ([5]; 72 hours): about 1.25 a.u. | absorbance (Congo red, biofilm development) ([5]; 96 hours): about 1.25 a.u. | influence on mature biofilm formation [6]: weak influence | absorbance (Congo red, biofilm development) ([6]; 48 hours): about 1.25 a.u. | absorbance (Congo red, biofilm development) ([6]; 56 hours): about 1.0 a.u. | absorbance (Congo red, biofilm development) ([6]; 72 hours): about 2.0 a.u. | absorbance (Congo red, biofilm development) ([6]; 96 hours): about 2.5 a.u. | number of viable P. aeruginosa ([7]; early biofilm, 0 h): 5 × 10^6 CFU/ml | number of viable P. aeruginosa ([7]; early biofilm, 8 h): 3 × 10^7 CFU/ml | number of viable P. aeruginosa ([7]; early biofilm, 24 h): 5 × 10^8 CFU/ml | number of viable P. aeruginosa ([7]; early biofilm, 48 h): 3 × 10^9 CFU/ml | number of viable P. aeruginosa ([7]; mature biofilm, 56 h): 3 × 10^8 CFU/ml | number of viable P. aeruginosa ([7]; mature biofilm, 72 h): 7 × 10^7 CFU/ml | number of viable P. aeruginosa ([7]; mature biofilm, 96 h): 7 × 10^7 CFU/ml | number of viable P. aeruginosa ([8]; early biofilm, 0 h): 4 × 10^7 CFU/ml | number of viable P. aeruginosa ([8]; early biofilm, 8 h): 1 × 10^8 CFU/ml | number of viable P. aeruginosa ([8]; early biofilm, 24 h): 6 × 10^8 CFU/ml | number of viable P. aeruginosa ([8]; early biofilm, 48 h): 6 × 10^8 CFU/ml | number of viable P. aeruginosa ([8]; mature biofilm, 56 h): 4 × 10^8 CFU/ml | number of viable P. aeruginosa ([8]; mature biofilm, 72 h): 5 × 10^9 CFU/ml | number of viable P. aeruginosa ([8]; mature biofilm, 96 h): 8 × 10^9 CFU/ml | number of viable P. aeruginosa ([9]; early biofilm, 0 h): 6 × 10^6 CFU/ml | number of viable P. aeruginosa ([9]; early biofilm, 8 h): 4 × 10^7 CFU/ml | number of viable P. aeruginosa ([9]; early biofilm, 24 h): 1 × 10^7 CFU/ml | number of viable P. aeruginosa ([9]; early biofilm, 48 h): 2 × 10^6 CFU/ml | number of viable P. aeruginosa ([9]; mature biofilm, 56 h): 3 × 10^8 CFU/ml | number of viable P. aeruginosa ([9]; mature biofilm, 72 h): 2 × 10^8 CFU/ml | number of viable P. aeruginosa ([9]; mature biofilm, 96 h): 1 × 10^9 CFU/ml | reduction of biofilm growth ([10]; 8 hours of incubation): about 90% | reduction of biofilm growth ([10]; 24 hours of incubation): about 90% | reduction of biofilm growth ([10]; 48 hours of incubation): about 25% | reduction of biofilm growth ([10]; 72 hours of incubation): about 10% | effect on biofilm growth ([10]; notably an early biofilm): can reduce the biofilm growth | reduction of biofilm growth ([11]; 8 hours of incubation): about 50% | reduction of biofilm growth ([11]; 24 hours of incubation): about 60% | reduction of biofilm growth ([11]; 48 hours of incubation): about 0% | reduction of biofilm growth ([11]; 72 hours of incubation): about 20% | effect on biofilm growth ([11]; notably an early biofilm): can reduce the biofilm growth | reduction of biofilm growth ([12]; 8 hours of incubation): about 45% | reduction of biofilm growth ([12]; 24 hours of incubation): about 45% | reduction of biofilm growth ([12]; 48 hours of incubation): about 5% | reduction of biofilm growth ([12]; 72 hours of incubation): about 20% | effect on biofilm growth ([12]; notably an early biofilm): can reduce the biofilm growth

Reference: US10745395B2, “Compounds for their use as drugs for the treatment and/or the prevention of infection(s) caused by biofilm-forming bacteria” (CENTRE NATIONAL DE LA RECHERCHE SCIENTIFIQUE, priority 2014, dated 2020)
